{
  "source": "patent US11890296B2",
  "about": "“Anti-tumor agent containing cytarabine, anti- tumor effect enhancing agent which is used in combination with cytarabine, anti-tumor kit, and anti-tumor agent which is used in combination with cytarabine” (priority 2018, dated 2024)",
  "key": {"[1]": {"test_system": "human myeloid leukemia cell line THP1", "experiment": "Cell proliferation test (Cell Titer-Glo), THP1", "type": "cell-based", "settings": "THP1 cells, cytarabine alone", "procedure": "(§1) The cell proliferation test was performed using human myeloid leukemia cell line U-937 (ATCC, CRL-1593.2), MOLM-13 (DSMZ, ACC 554), HL60 (ATCC, CRL-240), SKM-1 (JCRB cell bank, JCRB0118), OCI-M2 (DSMZ, ACC 619), NOMO-1 (JCRB cell bank, IFO050474), MV4-11 (ATCC, CRL-9591), THP1 (ATCC, TIB-202), and human peripheral blood mononuclear cell PBMC (CTL, CTL-UP-1). As the culture medium of U-937 cells, MOLM-13 cells, HL60 cells, SKM-1 cells, OCI-M2 cells, NOMO-1 cells, MV4-11 cells, and THP1 cells, RPMI1640 (FUJIFILM Wako Pure Chemical Corporation, 189-02025) added with 10% fetal bovine serum (Thermo Fisher Scientific, Inc., 10437-028) and 1% penicillin-streptomycin (10,000 U/mL, Thermo Fisher Scientific, Inc., 15140-122) was used. […] After culturing overnight, 5 μL of FLA3527, ASLAN003, BAY2402234, or cytarabine (Ara-C, C2035, Tokyo Chemical Industry Co., Ltd.) at the predetermined concentration was added, and 3 days later, 25 μL of Cell Titer-Glo (registered trade mark) luminescent cell viability assay (Promega Corporation, G7573) was added, and the light emission amount was measured using an Envision plate reader (PerkinElmer, Inc.). […] The proliferation inhibition concentration for each compound concentration was calculated by the following expression. […]\n(§2) The CI indicating the combined effect of Ara-C and the DHODH inhibitor compound was calculated using the software CalcuSyn of Biosoft."}, "[2]": {"test_system": "human myeloid leukemia cell line MV4-11", "experiment": "Cell proliferation test (Cell Titer-Glo), MV4-11", "type": "cell-based", "settings": "MV4-11 cells, Ara-C alone", "procedure": "as §1, §2"}},
  "data": [
    {"smiles": "Nc1ccn([C@@H]2O[C@H](CO)[C@@H](O)[C@@H]2O)c(=O)n1", "note": "[Ara-C, cytarabine]", "values": [
      {"measurement": "cytarabine sensitivity of the cell line", "setting": "[1]", "value": "insensitive"},
      {"measurement": "Ara-C sensitivity of the cell line", "setting": "[2]", "value": "sensitive"}
    ]}
  ]
}
